{"source": "patent CN117899087A", "about": "“与g蛋白偶联型雌激素受体结合的治疗乳腺癌的中药提取物及其应用” (Wuxi Hospital of Traditional Chinese Medicine, priority 2024, dated 2024)", "key": {"[1]": {"molecular_target": "T1, GPER target protein [GPER靶蛋白] (Homo sapiens, UniProt Q99527)", "T1 construct": "expressed in transfected cells; host or cells: 293T (HEK-293T), lentiviral recombinant plasmid system", "T1 sequence (Q99527 whole entry)": "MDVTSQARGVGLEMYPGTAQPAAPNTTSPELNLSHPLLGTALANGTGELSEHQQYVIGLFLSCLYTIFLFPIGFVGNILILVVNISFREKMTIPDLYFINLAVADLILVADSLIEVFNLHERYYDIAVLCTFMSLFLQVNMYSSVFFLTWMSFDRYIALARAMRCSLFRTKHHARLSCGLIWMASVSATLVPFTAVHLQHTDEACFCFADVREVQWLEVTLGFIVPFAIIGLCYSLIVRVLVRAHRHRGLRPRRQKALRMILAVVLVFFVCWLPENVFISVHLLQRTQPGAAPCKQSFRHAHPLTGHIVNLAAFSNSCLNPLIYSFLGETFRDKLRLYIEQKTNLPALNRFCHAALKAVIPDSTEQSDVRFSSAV", "assay": "Cellular thermal shift analysis (CESTA) with Western blot", "format": "binding", "settings": "10 μM, 24 h, GPER overexpressing HEK-293T"}, "[2]": {"molecular_target": "T2, GPER-1 overexpressing 293T cells [GPER-1过表达细胞, 293T细胞系] (Homo sapiens, UniProt Q99527)", "T2 construct": "expressed in transfected cells; host or cells: 293T (HEK-293T), lentiviral recombinant plasmid system", "T2 sequence (Q99527 whole entry)": "as above", "assay": "UPLC-QTOF/MS screening of CGD components binding to GPER-1 overexpressing cells", "settings": "GPER gene overexpressing cell line"}, "[3]": {"test_system": "triple-negative breast cancer MDA-MB-231 cells [三阴性乳腺癌MDA-MB-231细胞]", "assay": "MTT assay of MDA-MB-231 cell proliferation", "format": "cell-based", "settings": "MDA-MB-231, 24 h"}, "GPER": {"molecular_target": "GPER (Homo sapiens, UniProt Q99527)", "sequence (Q99527 whole entry, species assumed)": "as the sequence (Q99527 whole entry) above", "assay": "GPER activity (conclusion, no separate method)", "format": "biochemical"}, "[4]": {"test_system": "retinoid X receptor [类视黄醇X受体]", "settings": "cited from earlier work"}}, "note": "Entries after “also recorded” stand apart in the source; their conditions may differ."}
{"molecule": "CC(C)=CCC[C@@H](C(=O)O)[C@H]1[C@H](O)C[C@@]2(C)C3=CC[C@H]4C(C)(C)[C@@H](O)CC[C@]4(C)C3=CC[C@]12C", "note": "[16α-羟基松苓新酸, 16α-Hydroxydehydrotrametenolic acid]", "values": [{"measurement": "binding ability to GPER (CESTA)", "setting": "[1]", "value": "与GPER具有较强的结合能力; also recorded: 结合能力尤为突出"}, {"measurement": "abundance of GPER target protein after heating vs vehicle", "setting": "[1]; 55 to 70°C", "value": "丰度高于用载体处理的蛋白质的丰度"}, {"measurement": "stability of target protein", "setting": "[1]; 55 to 70°C", "value": "增加了靶蛋白的稳定性; also recorded: 能促进GPER靶蛋白的热稳定"}, {"measurement": "binding to GPER overexpressing cell line", "setting": "[2]", "value": "能与GPER基因过表达细胞系相结合"}, {"measurement": "inhibition of triple-negative breast cancer cell proliferation at 10 μmol/L", "setting": "[3]; 10 μmol/L", "value": "具有抑制三阴乳腺癌细胞增殖的能力"}, {"measurement": "inhibition of cancer cell proliferation at 40 μmol/L", "setting": "[3]; 40 μmol/L", "value": "接近最大抑制能力"}, {"measurement": "inhibition of triple-negative breast cancer cell proliferation", "setting": "[3]; 0.5-100 μmol/L, Fig. 4", "value": "具有显著的抑制三阴乳腺癌细胞增殖的能力"}, {"measurement": "inhibition at 40 μmol/L compared with 100 μmol/L", "setting": "[3]; 40 vs 100 μmol/L", "value": "和100μmol/L浓度相当"}, {"measurement": "concentration dependence of cancer cell inhibition", "setting": "[3]; increasing concentration from 10 μmol/L", "value": "抑制癌细胞的能力随浓度增高而增加"}, {"measurement": "GPER activity", "setting": "GPER", "value": "提高GPER活性"}, {"measurement": "agonism at retinoid X receptor", "setting": "[4]", "value": "天然选择性激动剂"}]}
